# From US20200345008A1, “Increased grape yields with brassinosteroid application” (priority 2019, published 2020)
# Experiments:
# [1] = test system: grapes of the variety Flame Seedless; assay type: in vivo
# Source text: Treatment (HBR) was twice applied to grapes of the variety Flame Seedless. Treatments consisted of either HBR or ProGibb (ProGibb 4%, a plant growth regulator commonly used on table grapes for berry thinning and/or increasing berry size). At the first application (Day 0) the grapes were approximately 3 mm in diameter. The second application was seven days later (Day 7) when the grapes were approximately 6 mm in diameter. The HBR was applied with a backpack mist blower at a rate if 100 gallons per acre. Grapes were evaluated for Cluster Color Rating and Cluster Color Intensity (Hue) on about Day 65 by comparing test subjects with the control of condition 1. The same data set was analyzed for berry weight, berry firmness, Brix units, and phytotoxicity.
# [2] = test system: grapes (var. Scarlet Royal); test: Experiment 2: HBR spray application on Scarlet Royal grapes; assay type: in vivo; conditions: for berry hue / cluster color / soluble solids: evaluations Days 54-97; for ripening responses: ethephon standard treatment (Day 45), versus untreated check
# Source text: Homobrassinolide (HBR) was applied on grapes (var. Scarlet Royal) at late bloom (Day 0), or at late bloom (Day 0) and again at approximately 1 week after berry set (Day 7). Grapes were approximately 3 mm in diameter at Day 0 and 6 mm in diameter at Day 7. HBR was applied at rates of 0.5 ppm/aiA, 1.0 ppm/aiA, and 2.0 ppm/aiA. Spray applications were made using a backpack mistblower to simulate commercial airblast applications at 100 gpa. Controls were an untreated group, and a group that received the standard treatment with Ethephon approximately two weeks after color break (Day 45). Evaluations were made at Days 54, 66, 75, 82, 90, and 97. All treated groups also received Latron B1956 which was added to each tank mix as a surfactant (0.125% v/v). Soluble solids, cluster color, and berry hue were enhanced by HBR and the ethephon standard treatment. […] Results are illustrated in Table 3 (FIG. 4).
# grapes = conditions: Lenahan et al., 2006; cited from earlier work
# [3] = HBR on Day 0 at 2.5 ppm/aiA, versus control, evaluated about Day 65
# [4] = two applications, or single application of 1.0 or 2.0 ppm/aiA, versus single application of 0.5 ppm/aiA HBR
SMILES,degrees Brix of the grapes ([1]; HBR on Day 0),"color intensity per reddish cluster [1, 3]","percentage of clusters per plot that were noticeably reddish [1, 3]","color intensity within each identified reddish cluster ([1]; HBR treatment, versus control)","percentage of reddish grapes within each identified reddish cluster ([1]; HBR treatment, versus control)",phytotoxicity ([1]; in vivo),berry hue ([2]; Scarlet Royal),cluster color ([2]; Scarlet Royal),soluble solids ([2]; Scarlet Royal),"efficacy ranking of treatments ([2]; double spray of 2 ppm ai HBR, compared to the ethephon standard treatment)",ripening responses ([2]; double spray of 2 ppm ai HBR),crop injury ([2]; in vivo),"rate response ([2]; single spray timing treatments (0.5, 1.0, 2.0 ppm/aiA) versus untreated check)","hue [2, 4]","percentages of clusters of color [2, 4]","soluble solids and Brix degrees [2, 4]",firmness of grapes (grapes),"crop injury ([2]; all treatments, Scarlet Royal)"
"CC[C@@H](C(C)C)C(O)C(O)[C@@H](C)[C@H]1CC[C@H]2[C@@H]3COC(=O)[C@H]4C[C@H](O)[C@H](O)C[C@]4(C)[C@H]3CC[C@]12C (stereo in doubt) [HBR, homobrassinolide]",tended to increase,more intense color per reddish cluster than control,increased the percentage of clusters per plot that were noticeably reddish,increased the color intensity,increased the percentage of reddish grapes,no observed phytotoxicity,enhanced,enhanced,enhanced,most efficacious treatment,significantly more effective than the untreated check,No crop injury was observed,positive rate response,greater hue,increased percentages of clusters of color,increased soluble solids and Brix degrees,,
"C=C1C[C@]23C[C@@]1(O)CC[C@H]2[C@@]12C=C[C@H](O)[C@@](C)(C(=O)O1)[C@H]2[C@@H]3C(=O)O [GA3, gibberellic acid]",,,,,,,,,,,,,,,,,increase firmness,
"O=P(O)(O)CCCl [ethephon, Ethephon, reference compound]",,,,,,,enhanced,enhanced,enhanced,,significantly more effective than the untreated check,,,,,,,No crop injury was observed
